Where “and” joins values, the source holds several entries; their conditions need not be identical. Equal entries are not always repeated.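 Interpolation was linear, between the two tested concentrations surrounding the appropriate level; five concentrations were tested over 48 hours in 96-well plates. GI50: concentration for 50% inhibition of growth. TGI marks complete inhibition of growth.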
Experiments:
Assay in all cases: growth of human tumour cells (NCI), 48 h
786-0 renal = system: 786-0 renal
CCRF-CEM leukemia = system: CCRF-CEM leukemia
MALME-3M melanoma = system: MALME-3M melanoma
NCI-H460 lung = system: NCI-H460 lung
OVCAR-5 ovarian = system: OVCAR-5 ovarian
SNB-75 CNS = system: SNB-75 CNS
TK-10 renal = system: TK-10 renal
MOLT-4 leukemia = system: MOLT-4 leukemia
NCI/ADR-RES ovarian = system: NCI/ADR-RES ovarian
PC-3 prostate = system: PC-3 prostate

Structure (SMILES) | TGI (786-0 renal) [µM] | TGI (CCRF-CEM leukemia) | TGI (MALME-3M melanoma) [µM] | TGI (NCI-H460 lung) | TGI (OVCAR-5 ovarian) [µM] | TGI (SNB-75 CNS) [µM] | TGI (TK-10 renal) [µM] | GI50 (786-0 renal) [µM] | GI50 (CCRF-CEM leukemia) | GI50 (MALME-3M melanoma) [µM] | GI50 (MOLT-4 leukemia) [µM] | TGI (MOLT-4 leukemia) [µM] | GI50 (NCI-H460 lung) | GI50 (NCI/ADR-RES ovarian) [µM] | TGI (NCI/ADR-RES ovarian) [µM] | GI50 (OVCAR-5 ovarian) [µM] | GI50 (PC-3 prostate) [µM] | TGI (PC-3 prostate) [µM] | GI50 (TK-10 renal) [µM] | GI50 (SNB-75 CNS) [µM]
O=C1c2ccccc2C(=O)c2c1ccc1c2N=C(c2ccc(Br)cc2)CC(c2cccc3ccccc23)N1 (stereo not drawn) | > 100 | > 100 µM | > 100 | > 100 µM | > 100 | > 100 | > 100 | – | – | – | – | – | – | – | – | – | – | – | – | –
CCN(CCO)CCCOc1ccc2c(Nc3cc(CC(=O)Nc4cccc(F)c4)[nH]n3)ncnc2c1 | > 100 | 47.9 µM and > 5.1 µM | 26.8 | 21.3 µM and > 3.81 µM | > 100 | – | > 100 | > 70.1 | < 0.01 µM and 0.0047 µM | 8.04 | 3.38 | > 88.4 | 0.071 µM and 0.0456 µM | > 100 | > 100 | 42.3 | 17.7 | > 64.8 | > 67.8 | –
Cc1cn2c(/C=C3/C(=O)Nc4ccc(Cl)cc43)c(C)nc2s1 | 31.1 | – | – | > 59.4 µM | > 43.4 | 29.8 | 17.5 | < 0.0403 | – | 1.22 | 0.0776 | > 100 | 1.04 µM | 0.0211 | – | 1.91 | 0.0447 | – | 2.42 | 16.3
CCCCC(C(=O)CCC(=O)Nc1ccc(Cl)cc1)C(=O)C(C)C (stereo not drawn) | > 100 | > 100 µM | > 100 | > 100 µM | > 100 | > 100 | > 100 | – | – | – | – | > 100 | – | – | – | – | – | – | – | –
Cc1ccc(S(=O)(=O)CC2(Br)CCc3ccccc3C2=O)cc1 (stereo not drawn) | > 100 | – | 68.6 | > 100 µM | > 100 | 54.9 | 85.7 | – | – | – | – | > 100 | – | – | > 100 | – | – | > 100 | – | –
COc1cc(Cn2c(SCC(=O)Nc3ccc(Cl)cc3)nc3ccccc3c2=O)cc(OC)c1OC | 12.3 | > 100 µM | – | 59.1 µM | > 100 | 4.89 | 7.67 | 3.37 | > 100 µM | – | > 100 | > 100 | 10.4 µM | 8.38 | 27.6 | 14.8 | 16.7 | > 100 | 2.63 | 1.58
COc1ccc2c(c1)N(CCO)C1=C(C(=O)OC1)C2c1ccc(OC)c(OC)c1 (stereo not drawn) | > 100 | > 100 µM | – | 12.6 µM | > 100 | > 100 | > 100 | 3.98 | 3.99 µM | – | 4.75 | > 100 | 3.09 µM | 4.38 | 45.1 | 5.76 | 3.03 | > 100 | 4.19 | 2.7
COC1=CC2CCN3Cc4cc5c(cc4C(C1O)C23)OCC5 (stereo not drawn) | > 61.9 | > 100 µM | – | > 100 µM | 22.8 | 6.24 | 41.9 | 2.47 | – | – | 2.11 | > 100 | 2.1 µM | 3 | 18.4 | 2.48 | 2.67 | > 47 | 5.53 | 1.24
CN1CCc2cc3c4cc2C1Cc1ccc(cc1)Oc1cc(ccc1O)CC1c2c(cc(O)c(c2O4)O3)CCN1C (stereo not drawn) | 10.9 | 14 µM | 3.56 | 4.01 µM | 14.8 | 65.6 | 31 | – | – | – | – | 10.2 | – | – | – | – | – | – | – | –
C=C1C(=O)C2(C)OC2(C)C1C(=O)O (stereo not drawn) | > 100 | > 100 µM | – | > 100 µM | > 100 | > 100 | > 100 | – | – | – | – | – | – | – | > 100 | – | – | > 100 | – | –
CC1CC(c2ccc(Cl)c(Cl)c2)=Nc2ccccc2S1 (stereo not drawn) | > 100 | > 100 µM | > 100 | > 100 µM | > 100 | > 100 | > 100 | – | – | – | – | > 100 | – | – | – | – | – | – | – | –
CCCCCCSc1nc(COC(=O)NC)c(COC(=O)NC)n1C | > 100 | > 100 µM | – | > 100 µM | > 100 | > 100 | > 100 | – | – | – | – | > 100 | – | – | > 100 | – | – | > 100 | – | –
NCC1(N2CCOCC2)C2CCCC21CNc1ccccc1 (stereo not drawn) | > 100 | > 100 µM | > 100 | > 100 µM | > 100 | > 100 | > 100 | – | – | – | – | > 100 | – | – | – | – | – | – | – | –
CN1CCN(c2ccc(Nc3ncc4cc5n(c4n3)C3(CCCCC3)CNC5=O)nc2)CC1 | 17 | 3.6 µM | 15.4 | 10.6 µM | 12.2 | 4.54 | – | 1.53 | 0.203 µM | 0.866 | 0.279 | 3.58 | 1.39 µM | 5.77 | 26 | 0.491 | 0.627 | 28.9 | – | 1.41
N[C@@H](CSSC[C@H](N)C(=O)N1CCn2cc(-c3ccccc3)nc2[C@@H]1CC1CCCCC1)C(=O)N1CCn2cc(-c3ccccc3)nc2[C@@H]1CC1CCCCC1 | 4.52 | – | 2.99 | 6.4 µM | 6.39 | 3.3 | 4.45 | 2.12 | – | 1.5 | 1.74 | > 21.4 | 1.92 µM | 2.95 | 9.32 | 2.23 | 2.91 | 9.62 | 2.05 | 1.79
O=C1CC[C@@H](NC(=O)Cc2ccccc2)C(=O)N1 | > 100 | > 100 µM | > 100 | > 100 µM | > 100 | > 100 | > 100 | – | – | – | – | > 100 | – | – | – | – | – | – | – | –
O=C(O)c1cn(C2CC2)c2cc(N3CCN(Cc4ccc5ccccc5c4O)CC3)c(F)cc2c1=O | 5.42 | – | – | – | – | 6.73 | – | 2.34 | – | – | – | – | – | – | – | – | – | – | – | 1.87
Cc1ccc(NC(=O)C(=O)CC(=O)c2ccccc2)cc1C | > 100 | – | > 100 | > 100 µM | > 100 | > 100 | > 100 | – | – | – | – | – | – | – | – | – | – | – | – | –
c1ccc2c(c1)N=C(c1ccc3ccccc3c1)CC(c1cccc3ccccc13)S2 (stereo not drawn) | > 100 | 33.5 µM | > 100 | > 100 µM | > 100 | > 100 | > 100 | – | – | – | – | 44.2 | – | – | – | – | – | – | – | –
